Literature values as cited in US6440438B2, “Covering impregnated with insecticide” (Protec Health International Limited, priority 1997, dated 2002).

Assays:
[1] = placed directly in contact with the skin
[2] = not given; remark: listed apart in the source

In the case of `CC1(C)C(C=C(Cl)Cl)C1C(=O)OCc1cccc(Oc2ccccc2)c1` (stereo not shown) [Permethrin], the “proportion of the chemical absorbed by the skin” value [1] is given as “about 0.5%”, the “period within which skin sensations (numbing, burning, tingling) usually subside” value (contact with permethrin, reversible) is given as “twelve” and the toxicity to humans (in vivo) is given as “not considered toxic”. For the same compound, the solubility in water [2] was “does not dissolve in water”.
